Key:
A549 cells [1] = test: Intracellular cGMP level in A549 cells on natriuretic peptide stimulus; assay type: cell-based; settings: 1×10^−11 M to 1×10^−6 M, 10 minutes
Experimental: The A549 cells were cultured in a 24-well dish at 4×10^4 cells/well, and the culture medium was replaced with DMEM culture medium free from FCS the next day. To the culture medium, solutions of hANP, hBNP, and hCNP (final concentration: ten-fold serial dilution from 1×10^−11 M to 1×10^−6 M, the same amount of physiological saline was used as a control) were separately added. After 10 minutes passed, 400 μL of cooled 70% ethanol (containing 0.1 N hydrochloric acid) was added, and ultrasonication was performed for a short time. The treated solution was lyophilized, and the cGMP level was measured using Cyclic GMP Assay kit (made by Yamasa Corp.).

lung cancer patients = test: Cancer recurrence after cancer resection surgery in lung cancer patients; assay type: in vivo, human; settings: hANP 0.025 μg/kg/min continuous from surgery for 3 days, about 2 years follow-up, stages IA-III
Experimental: It is reported that lung cancer patients whose BNP level in the blood is 30 pg/mL or higher are at high risk of postsurgical complications after a cancer removal surgery. In this experiment, lung cancer patients were measured for the BNP level in the blood before cancer removal surgery. A part of the patients having the BNP level in the blood of 30 pg/mL or higher and patients judged to be at high risk of postsurgical complications by the doctor in charge were assigned to the hANP group (52 patients in total; cancer stage breakdown was IA: 26 patients […], IB: 16 patients […], II: 7 patients […], and III: 3 patients (6%)). The control group consisted of patients assigned regardless of the BNP level in the blood (287 patients in total, cancer stage breakdown was IA: 155 patients (54%), IB: 65 patients (23%), II: 35 patients (12%), and III: 32 patients (11%)). To the hANP group, hANP (trade name: HAMP for INJECTION 1000, non-bolus, made by DAIICHI SANKYO Co., Ltd.) was continuously administered at 0.025 μg/kg/min starting during the surgery of lung cancer and the administration continued for 3 days after surgery. Before the surgery and for 4 days after surgery, each patient was measured for the blood pressure (systolic and diastolic), the heart rate, and the urine volume. […]

A549 cells [2] = test: Motility, wound healing assay, A549 cells; assay type: cell-based; settings: 1 μM hANP, TGF-β1 1 ng/mL, 24 hours
Experimental: Using a 6-well dish, the A549 cells were cultured at 4×10^5 cells/well, and the culture medium was replaced with DMEM culture medium free from FBS the next day. After 24 hours of culture, the cells were divided into 3 groups (the control group, the TGF-(31 group, and the TGF-β1+hANP group), and used in the following experiment.
To the culture medium for the TGF-β1+hANP group, the hANP solution was added so that the final concentration of hANP would be 1 μM. For the control group and the TGF-β1 group, the same amount of physiological saline was added to the culture medium. Two hours later, a wound was created at the center of each well with the use of a 200 μL-pipette tip. Immediately after the wound creation, a photograph of each well was taken under a microscope (FIG. 7A). To the TGF-β+hANP group and the TGF-β1 group, TGF-β1 was added so that the final concentration would be 1 ng/mL. After 24-hour culture, a photograph of the same part was taken again to calculate the average ratio of the wounded area width difference between immediately after the wound creation and after 24-hour culture (migration ratio: % wounded area filled) by the following formula.
Migration ratio (%)=(initial wound width−wound width after 24-hour culture)/(initial wound width)×100

[3] = test system: cancer cells (A549, H460, H520, H358 cells); test: Combined effect of hANP and cisplatin on apoptosis induction in cancer cells; assay type: cell-based; settings: hANP 1 or 10 μM with cisplatin 1-30 μM, 48 hours
Experimental: As the cisplatin, CISPLATIN inj. “Maruko” (trade name, Nichi-Iko Pharmaceutical) was used.
Using a 96-well dish, the A549 cells were cultured at 1×10^4 cells/well. The next day, the culture medium was replaced with DMEM culture medium free from FBS. After 24-hours culture, the cells were divided into groups (control group, cisplatin single administration group, 1 μM hANP group, cisplatin+1 μM hANP group, 10 μM hANP group, and cisplatin+10 μM hANP group), and the following experiment was conducted.
To the culture medium, for the hANP addition groups, a hANP solution prepared so that the final concentration of hANP would be 1 or 10 μM was added, whereas for the control group and the cisplatin single administration group, the same amount of physiological saline was added. Further, for the cisplatin addition groups, a cisplatin solution prepared so that the final concentration of cisplatin would be 1, 5, 10, 20, or 30 μM was added (for the control group and the hANP single administration group, the same amount of physiological saline was added). […] 48 hours later, trypan blue staining was performed and the cell viability (number of living cells/total number of all cells) was determined with the use of an automatic cell counter Countess (registered trademark) (Invitrogen). […]

HUVEC = test: VE-cadherin expression and intercellular adhesion of confluent HUVEC with VEGF; assay type: cell-based, human; settings: VEGF+hANP
Experimental: Normal human umbilical cord vein endothelial cells (HUVEC) were purchased from Takara Bio, Inc. Medium preparation and subculture were performed according to the package insert. Nuclear staining was performed using TOPRO3 (purchased from Invitrogen), and immunostaining of VE-cadherin was performed using anti-VE-cadherin antibody (purchased from BD Biosciences). p After culturing the HUVEC to confluent and replacing the medium with a serum free medium, nuclear staining and immunostaining using anti-VE-cadherin antibody were performed in the presence or absence of VEGF and hANP to observe the expression of VE-cadherin.

CC[C@H](C)[C@@H]1NC(=O)[C@H](CCCNC(=N)N)NC(=O)[C@H](CC(=O)O)NC(=O)[C@H](CCSC)NC(=O)[C@H](CCCNC(=N)N)NC(=O)CNC(=O)CNC(=O)[C@H](Cc2ccccc2)NC(=O)[C@@H](NC(=O)[C@H](CO)NC(=O)[C@H](CO)NC(=O)[C@H](CCCNC(=N)N)NC(=O)[C@H](CCCNC(=N)N)NC(=O)[C@H](CC(C)C)NC(=O)[C@@H](N)CO)CSSC[C@@H](C(=O)N[C@@H](CC(N)=O)C(=O)N[C@@H](CO)C(=O)N[C@@H](Cc2ccccc2)C(=O)N[C@@H](CCCNC(=N)N)C(=O)N[C@@H](Cc2ccc(O)cc2)C(=O)O)NC(=O)CNC(=O)[C@H](CC(C)C)NC(=O)CNC(=O)[C@H](CO)NC(=O)[C@H](CCC(N)=O)NC(=O)[C@H](C)NC(=O)CNC1=O [hANP, carperitide]
intracellular cGMP level (A549 cells [1]): increased the intracellular cGMP level of the A549 cells in a concentration-dependent manner
early recurrence of cancer (recurrence-free survival) (lung cancer patients): early recurrence was not observed
motility (migration ratio, % wounded area filled) (A549 cells [2]): significantly suppressed
apoptosis-inducing activity in combination with cisplatin [3]: enhanced
decrease of VE-cadherin expression and intercellular gaps caused by VEGF (HUVEC): this phenomenon was suppressed
